Assay results from patent US12686866B2, “Methods of treating cancer by suppression of FAMIN expression” (Cambridge Enterprise Limited, priority 2018, dated 2026).

Legend:
Type in all cases: biochemical
recombinant FAMIN [1] = target: T1, recombinant FAMIN (Homo sapiens, UniProt Q8IV20); assay: FAMIN adenosine deaminase activity: inosine generated from adenosine by recombinant FAMIN; conditions: 10 μg recombinant FAMIN, 10 μM adenosine in PBS, 1 h at 37° C.; FIG. 11A
T1 sequence (Q8IV20 1-430): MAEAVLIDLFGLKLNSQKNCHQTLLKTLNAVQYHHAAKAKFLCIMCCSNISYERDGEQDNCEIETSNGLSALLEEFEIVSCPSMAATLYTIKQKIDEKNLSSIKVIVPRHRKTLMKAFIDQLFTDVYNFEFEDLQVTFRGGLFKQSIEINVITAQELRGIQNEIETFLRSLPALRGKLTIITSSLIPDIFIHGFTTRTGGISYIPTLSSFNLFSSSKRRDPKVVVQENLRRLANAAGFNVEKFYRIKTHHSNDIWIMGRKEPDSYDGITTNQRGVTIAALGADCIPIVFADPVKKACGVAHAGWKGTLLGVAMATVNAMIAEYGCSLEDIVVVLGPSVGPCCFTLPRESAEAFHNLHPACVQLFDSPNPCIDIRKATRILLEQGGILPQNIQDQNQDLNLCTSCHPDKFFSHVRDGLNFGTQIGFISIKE
Description: (§1) FIGS. 11B and 11C show levels of adenine and ribose-1-phosphate (R-1-P) in the reaction described in FIG. 11A.

recombinant FAMIN [2] = target: T1, recombinant FAMIN; assay: FAMIN purine nucleoside phosphorylase activity: hypoxanthine and R-1-P from inosine with recombinant FAMIN; conditions: 10 μg recombinant FAMIN, 10 μM inosine in PBS, 1 h at 37° C.; FIG. 11D, E
Description: as §1

recombinant FAMIN [3] = target: T1, recombinant FAMIN; assay: FAMIN adenosine phosphorylase activity: adenine and R-1-P from adenosine with recombinant FAMIN; conditions: 10 μg recombinant FAMIN, 10 μM adenosine in PBS, 1 h at 37° C., FIG. 11B
Description: as §1

| SMILES | effect on FAMIN's adenosine deaminase activity (generation of inosine from adenosine) (recombinant FAMIN [1]) | effect on FAMIN's purine nucleoside phosphorylase activity (hypoxanthine and R-1-P levels) (recombinant FAMIN [2]) | effect on FAMIN's adenosine phosphorylase activity (adenine and R-1-P levels) (recombinant FAMIN [3]) |
| --- | --- | --- | --- |
| CCCCCC[C@@H]([C@@H](C)O)n1cnc2c(N)ncnc21 (racemic) [EHNA, erythro-9-(2-hydroxy-3-nonyl) adenine] | inhibit FAMIN's adenosine deaminase activity | – | – |
| Nc1nc2c(nc(N)n2[C@@H]2O[C@H](CO)[C@@H](O)[C@H]2O)c(=O)[nH]1 [8-aminoguanosine] | – | active on FAMIN's purine nucleoside phosphorylase activity | leaving FAMIN's adenosine phosphorylase activity intact |
